The test system of one test is Escherichia coli. The experiment in a line: Antibacterial activity against Escherichia coli ATCC 25922 after 24 hrs by microdilution method. The test is classed as functional, organism-based. (Broth dilution looks for growth in wells or tubes with falling amounts of substance.)
Test [1] deals with Staphylococcus aureus. The experiment in a line: Antibacterial activity against methicillin-resistant Staphylococcus aureus after 24 hrs by microdilution method. The format is functional.
In test [2] the test system is Staphylococcus aureus. Description: Bactericidal activity against methicillin-resistant Staphylococcus aureus after 24 hrs. The test is classed as functional.
The test system of test [3] is Enterococcus faecalis. Description: Bactericidal activity against vancomycin-resistant Enterococcus faecalis after 24 hrs. The format is functional.
The test system of test [4] is Enterococcus faecalis. Description: Antibacterial activity against vancomycin-resistant Enterococcus faecalis after 24 hrs by microdilution method. The test is classed as functional.
Another test relates to Pseudomonas aeruginosa. Description: Antibacterial activity against Pseudomonas aeruginosa ATCC 27853 after 24 hrs by microdilution method. The format is functional, organism-based.
Test [5] concerns Staphylococcus aureus. Description: Antibacterial activity against Staphylococcus aureus ATCC 29213 after 24 hrs by microdilution method. The format is functional. The note with it: ATCC 29213, 24 h.
The subject of test [6] is Staphylococcus aureus. The experiment in a line: Bactericidal activity against Staphylococcus aureus ATCC 29213 after 24 hrs. The test is classed as functional. The note with it: ATCC 29213, 24 h.

Drawing on ChEMBL document CHEMBL2429833, “A new class of bactericidal agents against S. aureus, MRSA and VRE derived from bisindolylmethane” (Med Chem Res, 2013), this text covers Activity, MIC and MBC for 23 compounds.

Molecules are shown by their SMILES. Converted amounts (≈) assume the structure as drawn. The source made the active and inactive calls. The rule behind the calls is not given here.

`Brc1ccc2[nH]cc(C(c3c[nH]c4ccc(Br)cc34)C3CCCCC3)c2c1`: the outcome with Escherichia coli and in the test with Pseudomonas aeruginosa was inactive. Moreover, the MIC with Staphylococcus aureus [1] worked out at 32 µg/mL (≈ 65.8 µM); against Enterococcus faecalis [4], 32 µg/mL (≈ 65.8 µM); against Staphylococcus aureus [5], 16 µg/mL (≈ 32.9 µM). Moreover, the minimal bactericidal concentration (MBC) against Staphylococcus aureus [2], in the test on Enterococcus faecalis [3] and with Staphylococcus aureus [6] was 32 µg/mL (≈ 65.8 µM) in each case.

`Oc1ccc(C(c2c[nH]c3ccc(Br)cc23)c2c[nH]c3ccc(Br)cc23)cc1`: the result with Escherichia coli and with Pseudomonas aeruginosa was inactive. Also, the MIC in the test with Staphylococcus aureus [1] is 1 µg/mL (≈ 2.02 µM); against Enterococcus faecalis [4] it was 2 µg/mL (≈ 4.03 µM); with Staphylococcus aureus [5], 0.5 µg/mL (≈ 1.01 µM). Besides, the MBC against Staphylococcus aureus [2] is 1 µg/mL (≈ 2.02 µM); in the test with Enterococcus faecalis [3] it was 2 µg/mL (≈ 4.03 µM); against Staphylococcus aureus [6] it was 0.5 µg/mL (≈ 1.01 µM).

On to `Oc1cccc(C(c2c[nH]c3ccc(Br)cc23)c2c[nH]c3ccc(Br)cc23)c1`, for which the result in the test with Escherichia coli and with Pseudomonas aeruginosa was inactive. The MIC in the test with Staphylococcus aureus [1] amounted to 2 µg/mL (≈ 4.03 µM); against Enterococcus faecalis [4], 4 µg/mL (≈ 8.06 µM); with Staphylococcus aureus [5] it was 1 µg/mL (≈ 2.02 µM). Besides, the MBC is 2 µg/mL (≈ 4.03 µM) with Staphylococcus aureus [2], 8 µg/mL (≈ 16.1 µM) against Enterococcus faecalis [3] and 1 µg/mL (≈ 2.02 µM) in the test with Staphylococcus aureus [6].

For `CCOc1ccc2c(c1)OC(C)(C)CC2(c1c[nH]c2ccc(Br)cc12)c1c[nH]c2ccc(Br)cc12`, the outcome with Escherichia coli and in the test with Pseudomonas aeruginosa was inactive. In addition, the MIC came to 32 µg/mL (≈ 53.8 µM) against Staphylococcus aureus [1], 32 µg/mL (≈ 53.8 µM) in the test with Enterococcus faecalis [4] and 8 µg/mL (≈ 13.5 µM) in the test with Staphylococcus aureus [5]. In addition, the MBC in the test on Staphylococcus aureus [2] turned out to be 32 µg/mL (≈ 53.8 µM); against Enterococcus faecalis [3], 32 µg/mL (≈ 53.8 µM); in the test with Staphylococcus aureus [6] it was 8 µg/mL (≈ 13.5 µM).

Turning to `N#Cc1ccc2[nH]cc(C(c3ccc(O)cc3)c3c[nH]c4ccc(C#N)cc34)c2c1`, the outcome in the test on Escherichia coli and in the test with Pseudomonas aeruginosa was inactive. Further, the MIC in the test with Staphylococcus aureus [1], with Enterococcus faecalis [4] and in the test on Staphylococcus aureus [5] was greater than 256 µg/mL each time.

For `O=C(O)c1cn(C2CC2)c2cc(N3CCNCC3)c(F)cc2c1=O` [CIPROFLOXACIN], the MBC came to 32 µg/mL (≈ 96.6 µM) against Staphylococcus aureus [2], 64 µg/mL (≈ 193 µM) in the test with Enterococcus faecalis [3] and 0.5 µg/mL (≈ 1.51 µM) in the test with Staphylococcus aureus [6]. In addition, the results for the MIC against Enterococcus faecalis [4] and against Staphylococcus aureus [5] were 64 µg/mL (≈ 193 µM) and 0.25 µg/mL (≈ 0.754 µM), respectively.

For `N#Cc1ccc2[nH]cc(C(c3ccc(F)cc3)c3c[nH]c4ccc(C#N)cc34)c2c1`, the result with Escherichia coli and in the test on Pseudomonas aeruginosa was inactive. Besides, the minimal inhibitory concentration (MIC) against Staphylococcus aureus [1] was found to be 1 µg/mL (≈ 2.56 µM); with Enterococcus faecalis [4] it was 8 µg/mL (≈ 20.5 µM); in the test with Staphylococcus aureus [5] it was 1 µg/mL (≈ 2.56 µM). Moreover, the MBC came to 1 µg/mL (≈ 2.56 µM) in the test with Staphylococcus aureus [2], 8 µg/mL (≈ 20.5 µM) against Enterococcus faecalis [3] and 1 µg/mL (≈ 2.56 µM) with Staphylococcus aureus [6].

For the compound `COc1ccc(C(c2c[nH]c3ccc(Br)cc23)c2c[nH]c3ccc(Br)cc23)cc1`, the result with Escherichia coli and with Pseudomonas aeruginosa was inactive. Further, the MIC in the test on Staphylococcus aureus [1] turned out to be 32 µg/mL (≈ 62.7 µM); with Enterococcus faecalis [4] it was 32 µg/mL (≈ 62.7 µM); against Staphylococcus aureus [5] it was 16 µg/mL (≈ 31.4 µM). The minimal bactericidal concentration (MBC) with Staphylococcus aureus [2], against Enterococcus faecalis [3] and in the test on Staphylococcus aureus [6] was 32 µg/mL (≈ 62.7 µM) in each case.

For `COc1ccc(C(c2c[nH]c3ccc(Br)cc23)c2c[nH]c3ccc(Br)cc23)c(OC)c1`, the outcome with Escherichia coli and in the test with Pseudomonas aeruginosa was inactive. The figures for the MIC against Staphylococcus aureus [1], with Enterococcus faecalis [4] and against Staphylococcus aureus [5] were 256 µg/mL (≈ 474 µM), greater than 256 µg/mL and 256 µg/mL (≈ 474 µM), respectively.

For the compound `COc1ccc(C(c2c[nH]c3ccc(Br)cc23)c2c[nH]c3ccc(Br)cc23)cc1OC`, the result in the test on Escherichia coli and with Pseudomonas aeruginosa was inactive. Besides, the MIC in the test with Staphylococcus aureus [1] turned out to be 256 µg/mL (≈ 474 µM); against Enterococcus faecalis [4], 256 µg/mL (≈ 474 µM); in the test on Staphylococcus aureus [5], 128 µg/mL (≈ 237 µM).

Take `Brc1ccc2[nH]cc(C(c3ccc4ccccc4c3)c3c[nH]c4ccc(Br)cc34)c2c1`: the outcome with Escherichia coli and in the test on Pseudomonas aeruginosa was inactive. For the same compound, the minimum inhibitory concentration (MIC) is 32 µg/mL (≈ 60.3 µM) in the test with Staphylococcus aureus [1], 32 µg/mL (≈ 60.3 µM) in the test with Enterococcus faecalis [4] and 16 µg/mL (≈ 30.2 µM) against Staphylococcus aureus [5]. In addition, the MBC against Staphylococcus aureus [2] came out at 32 µg/mL (≈ 60.3 µM); against Enterococcus faecalis [3], 32 µg/mL (≈ 60.3 µM); against Staphylococcus aureus [6] it was 16 µg/mL (≈ 30.2 µM).

`COc1ccc(OC)c(C(c2c[nH]c3ccc(Br)cc23)c2c[nH]c3ccc(Br)cc23)c1`: the result in the test on Escherichia coli and in the test on Pseudomonas aeruginosa was inactive. The MIC in the test on Staphylococcus aureus [1] is 256 µg/mL (≈ 474 µM); against Enterococcus faecalis [4] it was greater than 256 µg/mL; with Staphylococcus aureus [5], 128 µg/mL (≈ 237 µM).

For the compound `c1ccc(C(c2c[nH]c3ccccc23)c2c[nH]c3ccccc23)cc1`, the result in the test on Escherichia coli and with Pseudomonas aeruginosa was inactive. Further, the MIC against Staphylococcus aureus [1], against Enterococcus faecalis [4] and in the test with Staphylococcus aureus [5] was greater than 256 µg/mL in each case.

For the compound `Brc1ccc2[nH]cc(C(c3ccccc3)c3c[nH]c4ccc(Br)cc34)c2c1`, the result in the test with Escherichia coli and in the test with Pseudomonas aeruginosa was inactive. Besides, the minimal inhibitory concentration (MIC) with Staphylococcus aureus [1], against Enterococcus faecalis [4] and against Staphylococcus aureus [5] was 256 µg/mL (≈ 533 µM) each time.

As for `COc1ccc(Br)cc1C(c1c[nH]c2ccc(Br)cc12)c1c[nH]c2ccc(Br)cc12`, the outcome in the test with Escherichia coli and in the test on Pseudomonas aeruginosa was inactive. Besides, the MIC against Staphylococcus aureus [1] came out at 256 µg/mL (≈ 435 µM); in the test on Enterococcus faecalis [4], 256 µg/mL (≈ 435 µM); in the test on Staphylococcus aureus [5] it was 128 µg/mL (≈ 217 µM).

Take `CC(C)(c1c[nH]c2ccc(Br)cc12)c1c[nH]c2ccc(Br)cc12`: the result in the test with Escherichia coli and in the test on Pseudomonas aeruginosa was inactive. The MIC in the test with Staphylococcus aureus [1], against Enterococcus faecalis [4] and in the test on Staphylococcus aureus [5] was greater than 256 µg/mL throughout.

As for `CN(C)c1ccc(C(c2c[nH]c3ccc(Br)cc23)c2c[nH]c3ccc(Br)cc23)cc1`, the outcome with Escherichia coli and with Pseudomonas aeruginosa was inactive. The MIC is 128 µg/mL (≈ 245 µM) in the test with Staphylococcus aureus [1], 256 µg/mL (≈ 489 µM) against Enterococcus faecalis [4] and 64 µg/mL (≈ 122 µM) against Staphylococcus aureus [5].

On to `COc1cccc(C(c2c[nH]c3ccc(Br)cc23)c2c[nH]c3ccc(Br)cc23)c1OC`, for which the result in the test on Escherichia coli and with Pseudomonas aeruginosa was inactive. In addition, the results for the MIC with Staphylococcus aureus [1], against Enterococcus faecalis [4] and against Staphylococcus aureus [5] were 256 µg/mL (≈ 474 µM), greater than 256 µg/mL and 256 µg/mL (≈ 474 µM), respectively.

`CCCCCCCC(c1c[nH]c2ccc(Br)cc12)c1c[nH]c2ccc(Br)cc12`: the result with Escherichia coli and with Pseudomonas aeruginosa was inactive. Moreover, the MIC against Staphylococcus aureus [1], in the test with Enterococcus faecalis [4] and in the test with Staphylococcus aureus [5] was greater than 256 µg/mL each time.

Take `CCCC(c1c[nH]c2ccc(Br)cc12)c1c[nH]c2ccc(Br)cc12`: the result with Escherichia coli and with Pseudomonas aeruginosa was inactive. The MIC with Staphylococcus aureus [1], with Enterococcus faecalis [4] and against Staphylococcus aureus [5] was greater than 256 µg/mL each time.

In the case of `CCCCCCCCC(c1c[nH]c2ccc(Br)cc12)c1c[nH]c2ccc(Br)cc12`, the result in the test on Escherichia coli and in the test on Pseudomonas aeruginosa was inactive. For the same compound, the MIC in the test on Staphylococcus aureus [1], in the test with Enterococcus faecalis [4] and against Staphylococcus aureus [5] was greater than 256 µg/mL in each case.

For the compound `CC(c1ccccc1)(c1c[nH]c2ccc(Br)cc12)c1c[nH]c2ccc(Br)cc12`, the result with Escherichia coli and with Pseudomonas aeruginosa was inactive. Also, the MIC in the test with Staphylococcus aureus [1], in the test on Enterococcus faecalis [4] and against Staphylococcus aureus [5] was greater than 256 µg/mL in each case.

Take `O=[N+]([O-])c1ccc2[nH]cc(C(c3ccc(F)cc3)c3c[nH]c4ccc([N+](=O)[O-])cc34)c2c1`: the outcome in the test with Escherichia coli and with Pseudomonas aeruginosa was inactive. Also, the MIC with Staphylococcus aureus [1], against Enterococcus faecalis [4] and against Staphylococcus aureus [5] was greater than 256 µg/mL each time.

For orientation: MIC means the lowest concentration that inhibits growth of the organism. A high value points to a less susceptible organism. What is called MBC is the lowest tested concentration that kills the bacteria rather than only halting them. A low value points to greater bactericidal potency.
